Assay results published in the NIST ThermoML archive (doi:10.1021/je7006549).

Experiment: mn = molality of the nth substance listed, in mol/kg
Settings: 101 kPa, Liquid

CC1=CC(=O)c2ccccc2C1=O [2-methyl-1,4-naphthalenedione] + c1ccccc1
Settings | mass density [kg/m3] | viscosity [mPa·s]
303.15 K, m1 = 0.0334 | 869.4 | 0.5788
303.15 K, m1 = 0.0889 | 871.8 | 0.5842
303.15 K, m1 = 0.1332 | 873.7 | 0.588
303.15 K, m1 = 0.1778 | 875.6 | 0.5927
303.15 K, m1 = 0.2215 | 877.5 | 0.6006
303.15 K, m1 = 0.2681 | 879.5 | 0.6063
308.15 K, m1 = 0.0334 | 863.6 | 0.5408
308.15 K, m1 = 0.0889 | 866 | 0.5443
308.15 K, m1 = 0.1332 | 867.9 | 0.5484
308.15 K, m1 = 0.1778 | 869.8 | 0.5519
308.15 K, m1 = 0.2215 | 871.7 | 0.5598
308.15 K, m1 = 0.2681 | 873.7 | 0.5667
313.15 K, m1 = 0.0334 | 858.4 | 0.5057
313.15 K, m1 = 0.0889 | 860.8 | 0.5096
313.15 K, m1 = 0.1332 | 862.7 | 0.5142
313.15 K, m1 = 0.1778 | 864.6 | 0.5189
313.15 K, m1 = 0.2215 | 866.5 | 0.5242
313.15 K, m1 = 0.2681 | 868.5 | 0.5309
318.15 K, m1 = 0.0334 | 853 | 0.4782
318.15 K, m1 = 0.0889 | 855.4 | 0.4811
318.15 K, m1 = 0.1332 | 857.3 | 0.4847
318.15 K, m1 = 0.1778 | 859.2 | 0.4893
318.15 K, m1 = 0.2215 | 861.1 | 0.4945
318.15 K, m1 = 0.2681 | 863.1 | 0.5
323.15 K, m1 = 0.0334 | 847.7 | 0.4467
323.15 K, m1 = 0.0889 | 850.1 | 0.4489
323.15 K, m1 = 0.1332 | 852 | 0.4528
323.15 K, m1 = 0.1778 | 853.9 | 0.4566
323.15 K, m1 = 0.2215 | 855.8 | 0.461
323.15 K, m1 = 0.2681 | 857.8 | 0.4647
328.15 K, m1 = 0.0334 | 842.1 | 0.4206
328.15 K, m1 = 0.0889 | 844.5 | 0.4235
328.15 K, m1 = 0.1332 | 846.4 | 0.4266
328.15 K, m1 = 0.1778 | 848.3 | 0.4318
328.15 K, m1 = 0.2215 | 850.2 | 0.4347
328.15 K, m1 = 0.2681 | 852.2 | 0.4388
333.15 K, m1 = 0.0334 | 836.8 | 0.3946
333.15 K, m1 = 0.0889 | 839.2 | 0.3967
333.15 K, m1 = 0.1332 | 841.1 | 0.4003
333.15 K, m1 = 0.1778 | 843 | 0.4069
333.15 K, m1 = 0.2215 | 844.9 | 0.4084
333.15 K, m1 = 0.2681 | 846.9 | 0.4121

Cc1cccc(C)c1 [1,3-dimethylbenzene] + CC1=CC(=O)c2ccccc2C1=O
m2 = 0
Settings | mass density [kg/m3] | viscosity [mPa·s]
303.15 K | 855.6 | 0.549
308.15 K | 851.1 | 0.5201
313.15 K | 846.9 | 0.4967
318.15 K | 842.4 | 0.4817
323.15 K | 838.3 | 0.444
328.15 K | 833.7 | 0.435
333.15 K | 829.6 | 0.413

CC1=CC(=O)c2ccccc2C1=O [2-methyl-1,4-naphthalenedione] + Cc1ccccc1C
Settings | mass density [kg/m3] | viscosity [mPa·s]
303.15 K, m1 = 0.0436 | 873.9 | 0.7432
303.15 K, m1 = 0.0884 | 875.8 | 0.7496
303.15 K, m1 = 0.1326 | 877.7 | 0.7581
303.15 K, m1 = 0.1767 | 879.6 | 0.7658
303.15 K, m1 = 0.2215 | 881.6 | 0.7765
303.15 K, m1 = 0.2656 | 883.5 | 0.7833
308.15 K, m1 = 0.0436 | 869.5 | 0.6988
308.15 K, m1 = 0.0884 | 871.4 | 0.7021
308.15 K, m1 = 0.1326 | 873.3 | 0.7081
308.15 K, m1 = 0.1767 | 875.2 | 0.7159
308.15 K, m1 = 0.2215 | 877.2 | 0.726
308.15 K, m1 = 0.2656 | 879.1 | 0.7348
313.15 K, m1 = 0.0436 | 865.8 | 0.6532
313.15 K, m1 = 0.0884 | 867.7 | 0.6592
313.15 K, m1 = 0.1326 | 869.6 | 0.6687
313.15 K, m1 = 0.1767 | 871.5 | 0.6742
313.15 K, m1 = 0.2215 | 873.5 | 0.681
313.15 K, m1 = 0.2656 | 875.4 | 0.6888
318.15 K, m1 = 0.0436 | 861.5 | 0.6212
318.15 K, m1 = 0.0884 | 863.4 | 0.6256
318.15 K, m1 = 0.1326 | 865.3 | 0.6319
318.15 K, m1 = 0.1767 | 867.2 | 0.6407
318.15 K, m1 = 0.2215 | 869.2 | 0.6473
318.15 K, m1 = 0.2656 | 871.1 | 0.6525
323.15 K, m1 = 0.0436 | 857.3 | 0.5792
323.15 K, m1 = 0.0884 | 859.2 | 0.5832
323.15 K, m1 = 0.1326 | 861.1 | 0.5905
323.15 K, m1 = 0.1767 | 863 | 0.5967
323.15 K, m1 = 0.2215 | 865 | 0.6011
323.15 K, m1 = 0.2656 | 866.9 | 0.6087
328.15 K, m1 = 0.0436 | 853 | 0.5498
328.15 K, m1 = 0.0884 | 854.9 | 0.5531
328.15 K, m1 = 0.1326 | 856.8 | 0.5601
328.15 K, m1 = 0.1767 | 858.7 | 0.5665
328.15 K, m1 = 0.2215 | 860.7 | 0.5706
328.15 K, m1 = 0.2656 | 862.6 | 0.5773
333.15 K, m1 = 0.0436 | 848.9 | 0.5177
333.15 K, m1 = 0.0884 | 850.8 | 0.5202
333.15 K, m1 = 0.1326 | 852.7 | 0.5277
333.15 K, m1 = 0.1767 | 854.6 | 0.5309
333.15 K, m1 = 0.2215 | 856.6 | 0.5358
333.15 K, m1 = 0.2656 | 858.5 | 0.5412
